The results in this text go back to patent US20030017519A1, “Electrochemical enzyme assay” (priority 1993, published 2003).

SMILES strings stand for the structures.

The data set can be described thus: Electrochemical characteristics of β-galactosidase labeled substrates and their cleaved labels. It counts as physicochemical. Conditions: for Reversible?: electrochemical reversibility, per oxidation potential listed; for Elec. Active?: scanned in the potential range −0.6 V to +1.0 V vs. Ag/AgCl. From the text: When cleaved from the substrate, the label should be electrochemically active in this same potential range.

For `OCCOCCOCCOc1ccc(O[C@@H]2O[C@H](CO)[C@H](O)[C@H](O)[C@H]2O)c2ccccc12`, the “Reversible?” value is “no, no” and the “Elec. Active?” value was “yes”.

Regarding `COc1ccc(O[C@@H]2O[C@H](CO)[C@H](O)[C@H](O)[C@H]2O)c2ccccc12`, the “Reversible?” value is “quasi, no” and the “Elec. Active?” value was “yes”.

Regarding `OCCOCCOCCOc1ccc(O)c2ccccc12` [4-(1,4,7, 10-tetraoxadecyl)-1-naphthol], the “Reversible?” value is on record as “no” and the “Elec. Active?” value is on record as “yes”.

Take `COc1ccc(O)c2ccccc12` [4-methoxy-1-naphthol]: the “Reversible?” value was “quasi, no” and the “Elec. Active?” value is reported as “yes”.

As to `Nc1ccc(O[C@@H]2O[C@H](CO)[C@H](O)[C@H](O)[C@H]2O)cc1` [p-aminophenyl-β-D-galactyopyranoside, p-aminophenyl-β-D-galactopyranoside], the “Elec. Active?” value is reported as “no”.

As for `O=c1ccc2nc3ccc(O[C@@H]4O[C@H](CO)[C@H](O)[C@H](O)[C@H]4O)cc3oc-2c1` [resorufin-β-D-galactopyranoside], the “Reversible?” value is given as “Yes”, the “Elec. Active?” value is recorded as “yes” and the “Eox vs. Ag/AGCL” value is −0.100 V. Moreover, where the note is “before and after cleavage”, the “electrochemical activity at the measurement potential” value was “electrochemically active at the measurement potential before and after cleavage”.

For `O=c1ccc2nc3ccc(O)cc3oc-2c1` [resorufin], the “Reversible?” value is on record as “yes”, the “Elec. Active?” value is “yes” and the “Eox vs. Ag/AGCL” value was −0.100 V.
